The record followed here is paper PMC3344384 (Chemistry & biology, 2011).

As a reminder, the IC50 is the concentration at which inhibition is half-maximal. Read a low IC50 as inhibition by little substance.

Values joined by “and” are separate entries in the source; they are usually repeats but may differ in a detail not shown here. Identical values can stand only once.

One assay concerns Ub-PCNA in HEK293T cells. Description: Western blot of Ub-PCNA level in cells. It counts as cell-based, human.
Assay [1] has as its system Ub-FANCD2 in HEK293T cells. The assay can be described thus: Western blot of Ub-FANCD2 level in cells. It counts as cell-based, human. (In western blotting, separated proteins are transferred to a membrane and probed.)
The target in assay [2] is USP1/UAF1 (Homo sapiens, UniProt O94782). Description: gel-based K63-linked diubiquitin cleavage assay, USP1/UAF1. It counts as biochemical. As to conditions: IC50 USP1/UAF1, K63-linked diubiquitin substrate; NI = no significant inhibition at highest inhibitor concentration of 114 μM.
USP1/UAF1 (Homo sapiens, UniProt O94782), sequence (O94782 whole entry): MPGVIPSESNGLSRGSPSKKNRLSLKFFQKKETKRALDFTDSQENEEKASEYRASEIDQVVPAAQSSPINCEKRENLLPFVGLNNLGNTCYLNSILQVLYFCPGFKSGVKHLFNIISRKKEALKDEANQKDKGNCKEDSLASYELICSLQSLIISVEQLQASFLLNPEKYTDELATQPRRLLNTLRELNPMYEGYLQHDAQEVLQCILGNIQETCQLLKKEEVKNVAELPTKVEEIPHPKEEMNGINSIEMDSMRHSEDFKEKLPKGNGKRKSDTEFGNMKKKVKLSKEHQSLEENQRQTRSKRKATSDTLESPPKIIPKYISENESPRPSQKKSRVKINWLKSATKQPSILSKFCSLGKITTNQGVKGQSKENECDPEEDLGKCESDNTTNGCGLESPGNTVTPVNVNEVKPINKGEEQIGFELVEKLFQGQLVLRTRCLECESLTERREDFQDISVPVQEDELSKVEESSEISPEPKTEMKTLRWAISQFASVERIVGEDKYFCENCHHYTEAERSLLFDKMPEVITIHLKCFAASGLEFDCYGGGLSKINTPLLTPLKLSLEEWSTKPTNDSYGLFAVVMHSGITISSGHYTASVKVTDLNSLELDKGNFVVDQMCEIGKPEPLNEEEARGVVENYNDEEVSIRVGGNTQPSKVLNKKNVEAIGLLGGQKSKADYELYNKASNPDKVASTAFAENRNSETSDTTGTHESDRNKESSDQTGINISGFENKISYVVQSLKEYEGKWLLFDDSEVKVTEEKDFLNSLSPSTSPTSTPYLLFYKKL
USP1/UAF1 (Homo sapiens, UniProt O94782), sequence (Q8TAF3 whole entry, further chain): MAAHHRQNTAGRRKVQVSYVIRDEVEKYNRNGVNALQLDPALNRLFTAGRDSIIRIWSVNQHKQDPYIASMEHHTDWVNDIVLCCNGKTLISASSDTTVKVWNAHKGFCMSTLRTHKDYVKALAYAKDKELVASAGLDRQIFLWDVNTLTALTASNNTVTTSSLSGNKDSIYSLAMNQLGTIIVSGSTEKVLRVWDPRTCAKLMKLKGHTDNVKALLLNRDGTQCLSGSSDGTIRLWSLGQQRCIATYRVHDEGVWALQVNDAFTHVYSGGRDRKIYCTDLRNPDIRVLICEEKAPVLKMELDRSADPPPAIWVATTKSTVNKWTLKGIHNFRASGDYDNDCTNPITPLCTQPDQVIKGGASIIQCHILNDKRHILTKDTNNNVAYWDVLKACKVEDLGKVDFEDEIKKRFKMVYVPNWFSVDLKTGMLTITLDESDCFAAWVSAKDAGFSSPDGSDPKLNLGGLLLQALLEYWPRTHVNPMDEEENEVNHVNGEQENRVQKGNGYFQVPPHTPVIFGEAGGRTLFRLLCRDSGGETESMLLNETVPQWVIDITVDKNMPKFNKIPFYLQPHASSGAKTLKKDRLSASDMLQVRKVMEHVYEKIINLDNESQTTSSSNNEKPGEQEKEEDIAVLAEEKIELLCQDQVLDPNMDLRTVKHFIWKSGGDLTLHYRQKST
The next assay addresses USP46/UAF1 (Homo sapiens, UniProt P62068). The assay can be described thus: K63-linked diubiquitin cleavage assay, USP46/UAF1. It counts as biochemical.
Another assay concerns the target T1, caspase-1 (Homo sapiens, UniProt P29466).
T1 sequence (P29466 120-297 limits assumed): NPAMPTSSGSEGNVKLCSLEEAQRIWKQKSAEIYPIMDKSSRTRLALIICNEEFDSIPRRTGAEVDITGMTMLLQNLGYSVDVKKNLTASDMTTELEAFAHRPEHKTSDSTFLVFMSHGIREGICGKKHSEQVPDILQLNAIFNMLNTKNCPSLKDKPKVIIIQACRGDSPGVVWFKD
T1 sequence (P29466 317-404 limits assumed): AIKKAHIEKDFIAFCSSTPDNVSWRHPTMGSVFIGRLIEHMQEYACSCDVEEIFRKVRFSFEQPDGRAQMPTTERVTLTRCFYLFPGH
The assay can be described thus: cysteine protease selectivity, caspase-1. It counts as biochemical.

For another assay, the target named is T2, caspase-3 (Homo sapiens, UniProt P42574).
T2 sequence (P42574 29-175 limits assumed): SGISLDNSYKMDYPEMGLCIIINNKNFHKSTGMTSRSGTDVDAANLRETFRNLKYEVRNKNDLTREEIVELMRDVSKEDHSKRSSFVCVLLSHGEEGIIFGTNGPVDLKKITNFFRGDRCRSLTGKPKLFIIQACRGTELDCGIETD
T2 sequence (P42574 176-277 limits assumed): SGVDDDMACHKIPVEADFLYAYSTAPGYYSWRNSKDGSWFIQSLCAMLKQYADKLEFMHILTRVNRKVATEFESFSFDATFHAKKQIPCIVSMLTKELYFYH
The assay can be described thus: cysteine protease selectivity, caspase-3. It counts as biochemical.

The target in the next assay is T3, caspase-6 (Homo sapiens, UniProt P55212).
T3 sequence (P55212 24-179 limits assumed): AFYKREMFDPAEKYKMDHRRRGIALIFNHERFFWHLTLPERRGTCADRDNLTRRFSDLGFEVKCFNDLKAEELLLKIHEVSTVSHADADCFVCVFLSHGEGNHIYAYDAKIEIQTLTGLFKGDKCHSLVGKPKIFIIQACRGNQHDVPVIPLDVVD
T3 sequence (P55212 194-293 limits assumed): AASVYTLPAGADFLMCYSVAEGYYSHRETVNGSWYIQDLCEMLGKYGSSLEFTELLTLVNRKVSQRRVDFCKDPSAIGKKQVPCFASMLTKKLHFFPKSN
Description: cysteine protease selectivity, caspase-6. It counts as biochemical.

The next assay concerns the target T4, papain (Carica papaya, UniProt P00784).
T4 sequence (P00784 134-345): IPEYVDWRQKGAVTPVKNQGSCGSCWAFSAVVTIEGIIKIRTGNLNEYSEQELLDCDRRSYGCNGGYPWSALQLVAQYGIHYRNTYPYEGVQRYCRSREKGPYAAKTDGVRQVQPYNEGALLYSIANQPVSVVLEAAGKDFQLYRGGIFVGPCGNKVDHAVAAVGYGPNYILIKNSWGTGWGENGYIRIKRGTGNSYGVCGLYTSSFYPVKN
The assay can be described thus: cysteine protease selectivity, papain. It counts as biochemical.

For a further assay, the target named is T5, USP5 (Homo sapiens, UniProt P45974).
T5 sequence (P45974 1-858): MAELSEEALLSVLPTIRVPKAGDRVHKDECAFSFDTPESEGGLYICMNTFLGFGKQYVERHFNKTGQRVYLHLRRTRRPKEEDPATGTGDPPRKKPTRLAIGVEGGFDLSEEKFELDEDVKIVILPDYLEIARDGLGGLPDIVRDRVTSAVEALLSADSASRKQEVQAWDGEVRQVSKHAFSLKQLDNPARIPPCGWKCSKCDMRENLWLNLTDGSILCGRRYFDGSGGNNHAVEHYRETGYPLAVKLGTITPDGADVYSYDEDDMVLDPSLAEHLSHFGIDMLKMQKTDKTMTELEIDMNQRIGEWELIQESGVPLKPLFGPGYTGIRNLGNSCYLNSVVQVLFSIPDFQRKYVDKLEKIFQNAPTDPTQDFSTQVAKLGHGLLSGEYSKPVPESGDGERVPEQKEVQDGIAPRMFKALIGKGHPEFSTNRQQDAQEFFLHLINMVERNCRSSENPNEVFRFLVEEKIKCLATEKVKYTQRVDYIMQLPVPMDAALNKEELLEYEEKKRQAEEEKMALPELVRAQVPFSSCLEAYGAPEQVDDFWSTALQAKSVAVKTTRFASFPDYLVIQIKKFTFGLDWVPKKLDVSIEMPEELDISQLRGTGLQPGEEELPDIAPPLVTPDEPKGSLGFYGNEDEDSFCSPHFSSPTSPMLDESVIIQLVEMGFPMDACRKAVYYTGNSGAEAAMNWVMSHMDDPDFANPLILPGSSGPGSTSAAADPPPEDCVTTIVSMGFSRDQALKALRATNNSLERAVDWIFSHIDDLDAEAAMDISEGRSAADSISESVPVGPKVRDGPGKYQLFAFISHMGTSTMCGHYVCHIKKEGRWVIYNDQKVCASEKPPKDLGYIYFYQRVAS
Description: K63-linked diubiquitin cleavage assay, USP5.

Assay [3] has as its target USP1/UAF1 (Homo sapiens, UniProt O94782+Q8TAF3). The assay can be described thus: reversibility of inhibition by rapid dilution. As to conditions: incubation at 10 times IC50, 100-fold rapid dilution.

USP1/UAF1 (Homo sapiens, UniProt O94782+Q8TAF3), sequence (O94782 whole entry): as the sequence (O94782 whole entry) above
USP1/UAF1 (Homo sapiens, UniProt O94782+Q8TAF3), sequence (Q8TAF3 whole entry): as the sequence (Q8TAF3 whole entry, further chain) above
USP46/UAF1, sequence (P62068 whole entry): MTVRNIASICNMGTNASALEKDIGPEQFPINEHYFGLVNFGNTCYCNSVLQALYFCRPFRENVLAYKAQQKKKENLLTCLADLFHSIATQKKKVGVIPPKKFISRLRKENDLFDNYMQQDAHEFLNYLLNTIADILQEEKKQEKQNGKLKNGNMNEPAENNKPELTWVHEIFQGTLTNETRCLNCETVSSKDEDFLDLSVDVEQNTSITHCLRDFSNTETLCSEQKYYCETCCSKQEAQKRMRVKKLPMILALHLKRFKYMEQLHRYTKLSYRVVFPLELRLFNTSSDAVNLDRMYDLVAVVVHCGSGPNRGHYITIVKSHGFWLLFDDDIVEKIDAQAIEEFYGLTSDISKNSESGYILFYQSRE
USP46/UAF1, sequence (Q8TAF3 whole entry partner): as the sequence (Q8TAF3 whole entry, further chain) above

Turning to `N.N.[Cl][Pt][Cl]` [Cisplatin, cisplatin], in the assay with Ub-PCNA in HEK293T cells, the “monoubiquitination of PCNA, single agent” value was “a small, but significant, percent of Ub-PCNA was detected”. In assay [1], the “percentage of FANCD2 monoubiquitinated” value is given as “approximately 25%”.
As to `CC(=O)c1c(O)c(C)c(O)c(Cc2c(O)c3c(c(C(=O)/C=C/c4ccccc4)c2O)OC(C)(C)C=C3)c1O` [Rottlerin, rottlerin], the IC50 is ≤ 8 µM and 6 to 34 µM on USP1/UAF1 [2]; 15 ± 1 µM against USP46/UAF1; 5 to 45 µM at caspase-1; 5 to 45 µM against caspase-3; 5 to 45 µM against caspase-6; 5 to 45 µM against papain. The 50% inhibitory concentration (IC50) against USP5 is > 114 µM. Also, at USP1/UAF1 [3], the reversibility of inhibition entry is on record as “irreversible inhibitor”.
